Measured values from patent US8058475B2, “Substituted cyclohexylmethyl compounds” (Gruenenthal GmbH, priority 2005, dated 2011).
Like-named read-outs stand apart in the source and are kept apart here.

Target: human μ-opiate receptor (Homo sapiens, UniProt P35372)
Test: Affinity for the human μ-opiate receptor ([3H]-naloxone displacement, SPA, CHO-K1 membrane preparation)
Assay type: binding
Details: for inhibition at 1 µM: read-out: μ-Opioid receptor, % inhibition [1 μM]; for Ki: read-out: μ-Opioid receptor, Ki

Chain of human μ-opiate receptor (P35372 whole entry): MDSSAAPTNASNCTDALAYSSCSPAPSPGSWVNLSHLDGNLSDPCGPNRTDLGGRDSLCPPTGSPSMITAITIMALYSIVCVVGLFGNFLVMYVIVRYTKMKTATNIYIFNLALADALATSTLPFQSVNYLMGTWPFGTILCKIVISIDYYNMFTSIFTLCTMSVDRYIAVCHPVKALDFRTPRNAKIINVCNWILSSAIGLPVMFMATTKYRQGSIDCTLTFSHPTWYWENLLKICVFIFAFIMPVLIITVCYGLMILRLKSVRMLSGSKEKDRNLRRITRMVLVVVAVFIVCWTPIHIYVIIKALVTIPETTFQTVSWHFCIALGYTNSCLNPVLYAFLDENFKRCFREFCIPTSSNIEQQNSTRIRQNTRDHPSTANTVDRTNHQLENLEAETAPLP

CN(C)C(c1cccc(F)c1)C1CCC(NC(=O)CC(C)(C)C)CC1 (centres unmarked) [compound 251, N-{4-[dimethylamino-(3-fluoro-phenyl)-methyl]-cyclohexyl}-3,3-dimethyl-butyramide]
inhibition at 1 µM: 81% | Ki: 91 nM

CN(C)C(c1ccc(Cl)cc1)C1CCC(CCNC(=O)c2cc(F)cc(F)c2)CC1 (centres unmarked) [compound 434, N-(2-{4-[(4-chloro-phenyl)-dimethylamino-methyl]-cyclohexyl}-ethyl)-3,5-difluoro-benzamide]
inhibition at 1 µM: 85% | Ki: 24 nM

Cc1nc(-c2ccccc2)sc1C(=O)NC1CCC(C(c2ccccc2)N(C)C)CC1 (centres unmarked) [compound 238, 4-methyl-2-phenyl-thiazole-5-carboxylic acid [4-(dimethylamino-phenyl-methyl)-cyclohexyl]-amide]
inhibition at 1 µM: 83% | Ki: 38 nM

CCSc1ncccc1C(=O)NCC1CCC(C(c2ccc(Cl)cc2)N(C)C)CC1 (centres unmarked) [compound 351, N-{4-[(4-chloro-phenyl)-dimethylamino-methyl]-cyclohexylmethyl}-2-ethyl-sulfanyl-nicotinamide]
μ-Opioid receptor, % inhibition [1 μM]: 89% | Ki: 58 nM

CN(C)C(c1cccc(F)c1)C1CCC(CNC(=O)c2ccccc2Br)CC1 (centres unmarked) [compound 363, 2-bromo-N-{4-[dimethylamino-(3-fluoro-phenyl)-methyl]-cyclohexylmethyl}-benzamide]
inhibition at 1 µM: 85% | Ki: 38 nM

CN(C)C(c1ccc(F)cc1)C1CCC(CCNC(=O)c2cccc(Br)c2)CC1 (centres unmarked) [compound 459, 3-bromo-N-(2-{4-[dimethylamino-(4-fluoro-phenyl)-methyl]-cyclohexyl}-ethyl)-benzamide]
inhibition at 1 µM: 90% | Ki: 31 nM

CN(C)C(c1ccccc1)C1CCC(CNC(=O)c2cccs2)CC1 (centres unmarked) [compound 328, thiophene-2-carboxylic acid [4-(dimethylamino-phenyl-methyl)-cyclohexyl-methyl]-amide]
inhibition at 1 µM: 94% | Ki: 16 nM

Cc1oc(-c2ccc(Cl)cc2)cc1C(=O)NC1CCC(C(c2cccs2)N(C)C)CC1 (centres unmarked) [compound 229, 5-(4-chloro-phenyl)-2-methyl-furan-3-carboxylic acid [4-(dimethylamino-thiophen-2-yl-methyl)-cyclohexyl]-amide]
inhibition at 1 µM: 86% | Ki: 39 nM

CN(C)C(c1ccccc1)C1CCC(CNC(=O)c2ccc(F)c(F)c2)CC1 (single isomer, unassigned) [compound 357, N-[4-(dimethylamino-phenyl-methyl)-cyclohexylmethyl]-3,4-difluoro-benzamide]
μ-Opioid receptor, % inhibition [1 μM] (1 µM): 86% | Ki: 60 nM

COc1c(C(=O)NCCC2CCC(C(CCc3ccccc3)N(C)C)CC2)csc1Cl (centres unmarked) [compound 476, 5-chloro-4-methoxy-thiophene-3-carboxylic acid {2-[4-(1-dimethylamino-3-phenyl-propyl)-cyclohexyl]-ethyl}-amide]
inhibition at 1 µM: 87% | Ki: 84 nM

CN(C)C(CCc1ccccc1)C1CCC(NC(=O)c2ccc(F)c(C(F)(F)F)c2)CC1 (single isomer, unassigned) [compound 210, N-[4-(1-dimethylamino-3-phenyl-propyl)-cyclohexyl]-4-fluoro-3-trifluoromethyl-benzamide]
inhibition at 1 µM: 92% | Ki: 24 nM

CN(C)C(c1cccc(F)c1)C1CCC(CNC(=O)c2csc3ccccc23)CC1 (centres unmarked) [compound 314, benzo[b]thiophene-3-carboxylic acid {4-[dimethylamino-(3-fluoro-phenyl)-methyl]-cyclohexylmethyl}-amide]
inhibition at 1 µM: 97% | Ki: 4.2 nM

CN(C)C(c1ccccc1)C1CCC(CNC(=O)c2c(Cl)cc(Cl)cc2Cl)CC1 (centres unmarked) [compound 338, 2,4,6-trichloro-N-[4-(dimethylamino-phenyl-methyl)-cyclohexylmethyl]-benzamide]
inhibition at 1 µM: 91% | Ki: 28 nM
